What was measured:
GgNAD-MEβ2 = test: NADH formation at […] nm; assay type: biochemical, Gynandropsis gynandra; conditions: read-out: Km malate; no aspartate; 4 mM NAD, 10 mM MnCl2, MES pH 6.2-6.4
GgNAD-MEα = test: NADH formation at […] nm; assay type: biochemical, Gynandropsis gynandra; conditions: read-out: Km malate; 4 mM NAD, 10 mM MnCl2, MES pH 6.2-6.4
ThNAD-MEβ1 = test: NADH formation at […] nm; assay type: biochemical, Tarenaya hassleriana; conditions: read-out: Km malate; 4 mM NAD, 10 mM MnCl2, MES pH 6.2-6.4
GgNAD-MEα/β2 = test: NADH formation at […] nm; assay type: biochemical, Gynandropsis gynandra; conditions: read-out: Km malate; no aspartate; 4 mM NAD, 10 mM MnCl2, MES pH 6.2-6.4
ThNAD-MEβ2 = test: NADH formation at […] nm; assay type: biochemical, Tarenaya hassleriana; conditions: read-out: Km malate; 4 mM NAD, 10 mM MnCl2, MES pH 6.2-6.4
ThNAD-MEα/β2 = test: NADH formation at […] nm; assay type: biochemical, Tarenaya hassleriana; conditions: read-out: Km malate; 4 mM NAD, 10 mM MnCl2, MES pH 6.2-6.4
ThNAD-MEα = test: NADH formation at […] nm; assay type: biochemical, Tarenaya hassleriana; conditions: read-out: Km malate; 4 mM NAD, 10 mM MnCl2, MES pH 6.2-6.4
ThNAD-MEα/β1 = test: NADH formation at […] nm; assay type: biochemical, Tarenaya hassleriana; conditions: read-out: Km malate; 4 mM NAD, 10 mM MnCl2, MES pH 6.2-6.4
purified protein = substrate: O=C(O)C[C@H](O)C(=O)O; test: purified protein; conditions: no aspartate; 4 mM NAD, 10 mM MnCl2, MES pH 6.2-6.4; pH 6.0

Row | Km (GgNAD-MEβ2) [mM] | Km (GgNAD-MEα) [mM] | Km (ThNAD-MEβ1) [mM] | Km (GgNAD-MEα/β2) [mM] | Km (ThNAD-MEβ2) [mM] | Km (ThNAD-MEα/β2) [mM] | Km (ThNAD-MEα) [mM] | Km (ThNAD-MEα/β1) [mM] | Molecule | Km (purified protein) [mM] | kcat (purified protein) [s⁻¹]
1 | 2.6 ± 1 | 3.1 ± 0.4 | 9.2 ± 2.3 | 3.5 ± 0.5 | 6.8 ± 1.7 | 3.4 ± 1 | 5.4 ± 1.3 | 6.6 ± 1.6 | O=C(O)C[C@H](O)C(=O)O [malate] | – | –
2 | – | – | – | – | – | – | – | – | AtNAD-MEα/β (Arabidopsis thaliana) (protein) chain 1: PTIVHKQGLDILHDPWFNKGTAFTMTERNRLDLRGLLPPNVMDSEQQIFRFMTDLKRLEEQARDGPSDPNALAKWRILNRLHDRNETMYYKVLINNIEEYAPIVYTPTVGLVCQNYSGLFRRPRGMYFSAEDRGEMMSMVYNWPAEQVDMIVVTDGSRILGLGDLGVHGIGIAVGKLDLYVAAAGINPQRVLPVMIDVGTNNEKLRNDPMYLGLQQRRLEDDDYIDVIDEFMEAVYTRWPHVIVQFEDFQSKWAFKLLQRYRCTYRMFNDDVQGTAGVAIAGLLGAVRAQGRPMIDFPKMKIVVAGAGSAGIGVLNAARKTMARMLGNTETAFDSAQSQFWVVDAQGLITEGRENIDPEAQPFARKTKEMERQGLKEGATLVEVVREVKPDVLLGLSAVGGLFSKEVLEAMKGSTSTRPAIFAMSNPTKNAECTPQDAFSILGENMIFASGSPFKNVEFGNGHVGHCNQGNNMYLFPGIGLGTLLSGAPIVSDGMLQAASECLAAYMSEEEVLEGIIYPPISRIRDITKRIAAAVIKEAIEEDLVEGYREMDAREIQKLDEEGLMEYVENNMWNPEYPTLVYKDD chain 2: CIVHKRGADILHDPWFNKDTGFPLTERDRLGIRGLLPPRVMTCVQQCDRFIESFRSLENNTKGEPENVVALAKWRMLNRLHDRNETLYYRVLIDNIKDFAPIIYTPTVGLVCQNYSGLYRRPRGMYFSAKDKGEMMSMIYNWPAPQVDMIVITDGSRILGLGDLGVQGIGIPIGKLDMYVAAAGINPQRVLPIMLDVGTNNEKLLQNDLYLGVRQPRLEGEEYLEIIDEFMEAAFTRWPKAVVQFEDFQAKWAFGTLERYRKKFCMFNDDVQGTAGVALAGLLGTVRAQGRPISDFVNQKIVVVGAGSAGLGVTKMAVQAVARMAGISESEATKNFYLIDKDGLVTTERTKLDPGAVLFAKNPAEIREGASIVEVVKKVRPHVLLGLSGVGGIFNEEVLKAMRESDSCKPAIFAMSNPTLNAECTAADAFKHAGGNIVFASGSPFENVELENGKVGHVNQANNMYLFPGIGLGTLLSGARIVTDGMLQAASECLASYMTDEEVQKGILYPSINNIRHITAEVGAAVLRAAVTDDIAEGHGDVGPKDLSHMSKEDTVNYITRNMWFPVYSPLVHEK | 3.2 ± 0.4 | 30.7 ± 2.0
